Consider 26 compounds from patent US8741923B2, “Oxadiazole fused heterocyclic derivatives useful for the treatment of multiple sclerosis” (Merck Serono SA, priority 2008, dated 2014).

In general, Ki refers to a dissociation constant, usually derived from enzyme kinetics or from competition with a known ligand. A lower Ki goes with a stronger hold on the target. By EC50 is commonly meant the concentration at which the effect is half-maximal.

The target in one test is T1, S1P1 (Homo sapiens (Human), UniProt P21453). Nature of the test: Receptor binding assay ([33P]sphingosine 1-phosphate, SPA) on S1P1 membranes. To be noted: membranes from CHO cells expressing S1P1. The procedure: (§1) Receptor binding assay: Membranes were prepared from CHO cells expressing S1P1 or S1P3 for use in ligand and 35S-GTPγS binding studies. Cells were suspended in 50 mM TRIS, pH 7.4, 2 mM EDTA, 250 mM Sucrose (buffer A) and 1× Complete protease inhibitor cocktail (Roche), and disrupted at 4° C. by N2 decompression using a cell disruption bomb (Parr Instrument). Following centrifugation at 1000 RPM for 10 min at 4° C., the supernatant was suspended in buffer A and centrifuged again at 19000 RPM for 60 min at 4° C. The pellet was then suspended in 10 mM HEPES, pH 7.4, 1 mM EDTA, 250 mM Sucrose (Buffer B), and 1× Complete EDTA-free protease inhibitor cocktail and homogenized using a potter. Membranes were flash frozen in liquid N2 and stored at −80° C. [33P]sphingosine 1-phosphate (3000 Ci/mmol; American Radiolabeled Chemicals, Inc.) was added to test compounds in DMSO. Membranes and WGA SPA beads (GE Healthcare) were added to give a final volume of 100 μl in 96-well plates with assay concentrations of 25 μM or 10 μM [33P]sphingosine 1-phosphate (respectively for S1P1 or S1P3), 50 mM HEPES, pH 7.5, 5 mM MgCl2, 100 mM NaCl, 0.4% fatty acid-free BSA, 1-5 μg/well of proteins and 100 μg/well of WGA SPA beads. Binding was performed for 60 min at RT on a shaker and bound radioactivity was measured on a PerkinElmer 1450 MicroBeta counter. Specific binding was calculated by subtracting remaining radioactivity in the presence of 1000-fold excess of unlabeled S1P. Binding data were analyzed using the GraphPad Prism program.
T1 sequence (P21453 whole entry, species assumed): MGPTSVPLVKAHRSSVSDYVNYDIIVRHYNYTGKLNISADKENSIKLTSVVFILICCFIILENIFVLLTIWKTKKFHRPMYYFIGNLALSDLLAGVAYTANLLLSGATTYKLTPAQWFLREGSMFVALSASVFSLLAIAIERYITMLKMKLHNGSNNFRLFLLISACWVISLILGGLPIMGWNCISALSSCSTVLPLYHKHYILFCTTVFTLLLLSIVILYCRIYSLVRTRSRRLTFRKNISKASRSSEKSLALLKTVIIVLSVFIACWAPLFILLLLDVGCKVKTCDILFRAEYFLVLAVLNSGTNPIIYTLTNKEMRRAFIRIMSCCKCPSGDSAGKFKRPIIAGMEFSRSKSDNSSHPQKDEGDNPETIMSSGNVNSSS
`CC1CCCCN1c1ccc(-c2nc(-c3ccc4c(c3)CN(CCC(=O)O)CC4)no2)cc1C(F)(F)F` (centres unmarked) [Compound 37, 3-[7-{5-[4-(2-methylpiperidin-1-yl)-3-(trifluoromethyl)phenyl]-1,2,4-oxadiazol-3-yl}-3,4-dihydroisoquinolin-2(1H)-yl]propanoic acid] gave a Ki of 0.75 nM.

Compound `Cc1ccccc1-c1ccc(-c2nc(-c3ccc4c(c3)CN(CC(=O)O)CC4)no2)cc1C(F)(F)F` [Compound 36, [7-{5-[2′-methyl-2-(trifluoromethyl)biphenyl-4-yl]-1,2,4-oxadiazol-3-yl}-3,4-dihydroisoquinolin-2(1H)-yl]acetic acid] had a Ki of 0.49 nM. Still for that read-out and setting: in the case of `CC1CCCCN1c1ccc(-c2nc(-c3ccc4c(c3)CN(CC(=O)O)CC4)no2)cc1C(F)(F)F` (centres unmarked) [Compound 38, [7-{5-[4-(2-methylpiperidin-1-yl)-3-(trifluoromethyl)phenyl]-1,2,4-oxadiazol-3-yl}-3,4-dihydroisoquinolin-2(1H)-yl]acetic acid] it was 0.8 nM; in that of `COCc1cc(-c2nc(-c3ccc4c(c3)CN(CCC(=O)O)CC4)no2)ccc1-c1ccccc1C` [Compound 35, 3-[7-{5-[2-(methoxymethyl)-2′-methylbiphenyl-4-yl]-1,2,4-oxadiazol-3-yl}-3,4-dihydroisoquinolin-2(1H)-yl]propanoic acid], 0.23 nM. The same measure, in the same setting: in the case of `COCc1cc(-c2nc(-c3ccc4c(c3)CCN(CCC(=O)O)C4)no2)ccc1-c1ccccc1C` [Compound 40, 3-{6-[5-(2-Methoxymethyl-2′-methyl-biphenyl-4-yl)-[1,2,4]oxadiazol-3-yl]-3,4-dihydro-1H-isoquinolin-2-yl}-propionic acid] it was 1.1 nM. In the case of `Cc1ccccc1-c1ccc(-c2nc(-c3ccc4c(c3)CN(CCC(=O)O)CC4)no2)cc1C(F)(F)F` [Compound 39, 3-[7-{5-[2′-methyl-2-(trifluoromethyl)biphenyl-4-yl]-1,2,4-oxadiazol-3-yl}-3,4-dihydroisoquinolin-2(1H)-yl]propanoic acid], affinity was put at a Ki of 0.6 nM.

Another test has as its target T1, S1P1. Nature of the test: 35S-GTPγS binding, S1P1 membranes. The class given is biochemical. To be noted: membranes from CHO cells expressing S1P1. The procedure:
as §1, with “Membranes and WGA SPA beads (GE Healthcare) were added to give a final volume of 100 μl in 96-well plates with assay concentrations of 25 μM or 10 μM [33P]sphingosine 1-phosphate (respectively for S1P1 or S1P3), 50 mM HEPES, pH 7.5, 5 mM MgCl2, 100 mM NaCl, 0.4% fatty acid-free BSA, 1-5 μg/well of proteins and 100 μg/well of WGA SPA beads. Binding was performed for 60 min at RT on a shaker and bound radioactivity was measured on a PerkinElmer 1450 MicroBeta counter.” left out
Measurements of 35S-GTPγS Binding:
After 60 min incubation at 30° C. on a shaker, plates were centrifuged for 10 min at 2000 RPM. […] Triplicate samples were averaged and expressed as % response relative to S1P activation in absence of compound (n=2).
For `COCc1cc(-c2nc(-c3cc(C)c4[nH]cnc4c3)no2)ccc1-c1ccccc1C` [Compound 26, 5-{5-[2-(methoxymethyl)-2′-methylbiphenyl-4-yl]-1,2,4-oxadiazol-3-yl}-7-methyl-1H-benzimidazole], the response was half-maximal at 38.1 nM (EC50). `Cc1ccccc1-c1ccc(-c2nc(-c3ccc4c(ccn4CC(=O)O)c3)no2)cc1C` [Compound 18, {5-[5-(2,2′-dimethylbiphenyl-4-yl)-1,2,4-oxadiazol-3-yl]-1H-indol-1-yl}acetic acid] yielded an EC50 of 3030 nM. With `C[C@@H]1CCCCN1c1ccc(-c2nc(-c3ccc4[nH]cnc4c3)no2)cc1C(F)(F)F` [Compound 28, 5-{5-[4-[(2R)-2-methylpiperidin-1-yl]-3-(trifluoromethyl)phenyl]-1,2,4-oxadiazol-3-yl}-1H-benzimidazole], the EC50 came out at 23 nM.

`CC1CCCCN1c1ccc(-c2nc(-c3ccc4[nH]ccc4c3)no2)cc1C#N` (centres unmarked) [Compound 23, 5-[3-(1H-indol-5-yl)-1,2,4-oxadiazol-5-yl]-2-(2-methylpiperidin-1-yl)benzonitrile] returned an EC50 of 42 nM. On the same count and under the same terms, in the case of `Cc1ccccc1-c1ccc(-c2nc(-c3ccc4c(ccn4C)c3)no2)cc1C` [Compound 17, 5-[5-(2,2′-dimethylbiphenyl-4-yl)-1,2,4-oxadiazol-3-yl]-1-methyl-1H-indole] it was 1330 nM; in that of `COCc1cc(-c2nc(-c3ccc4[nH]cnc4c3)no2)ccc1N1CCCCC1C` (centres unmarked) [Compound 6, 5-{5-[3-(methoxymethyl)-4-(2-methylpiperidin-1-yl)phenyl]-1,2,4-oxadiazol-3-yl}-1H-benzimidazole], 2.5 nM. On the same count and under the same terms, the result for `CCc1ccccc1-c1ccc(-c2nc(-c3ccc4c(c3)CN(CCC(=O)O)CC4)no2)cc1COC` [Compound 31, 3-[7-{5-[2′-ethyl-2-(methoxymethyl)biphenyl-4-yl]-1,2,4-oxadiazol-3-yl}-3,4-dihydroisoquinolin-2(1H)-yl]propanoic acid] reads 2.52 nM; that for `COc1cc2[nH]c(C(=O)O)cc2cc1-c1noc(-c2ccc(N3CCCCC3C)c(C(F)(F)F)c2)n1` (centres unmarked) [Compound 21, 6-methoxy-5-{5-[4-(2-methylpiperidin-1-yl)-3-(trifluoromethyl)phenyl]-1,2,4-oxadiazol-3-yl}-1H-indole-2-carboxylic acid], 468 nM; that for `COCc1cc(-c2nc(-c3cc(F)c4[nH]cnc4c3)no2)ccc1-c1ccccc1C` [Compound 9, 7-fluoro-5-{5-[2-(methoxymethyl)-2′-methylbiphenyl-4-yl]-1,2,4-oxadiazol-3-yl}-1H-benzimidazole], 0.5 nM. Still for that read-out and setting: in the case of `COCc1cc(-c2nc(-c3ccc4cc(C(=O)O)[nH]c4c3)no2)ccc1-c1ccccc1C` [Compound 32, 6-{5-[2-(methoxymethyl)-2′-methylbiphenyl-4-yl]-1,2,4-oxadiazol-3-yl}-1H-indole-2-carboxylic acid] it was 30.8 nM; in that of `CCC1CCCCN1c1ccc(-c2nc(-c3ccc4c(c3)CN(CCC(=O)O)CC4)no2)cc1COC` (centres unmarked) [Compound 33, 3-[7-{5-[4-(2-ethylpiperidin-1-yl)-3-(methoxymethyl)phenyl]-1,2,4-oxadiazol-3-yl}-3,4-dihydroisoquinolin-2(1H)-yl]propanoic acid], 0.89 nM; in that of `CCC1CCCCN1c1ccc(-c2nc(-c3ccc4c(c3)CN(CC(=O)O)CC4)no2)cc1COC` (centres unmarked) [Compound 34, [7-{5-[4-(2-ethylpiperidin-1-yl)-3-(methoxymethyl)phenyl]-1,2,4-oxadiazol-3-yl}-3,4-dihydroisoquinolin-2(1H)-yl]acetic acid], 1.93 nM. Take `CCc1ccccc1-c1ccc(-c2nc(-c3ccc4c(c3)CN(CC(=O)O)CC4)no2)cc1COC` [Compound 30, [7-{5-[2′-ethyl-2-(methoxymethyl)biphenyl-4-yl]-1,2,4-oxadiazol-3-yl}-3,4-dihydroisoquinolin-2(1H)-yl]acetic acid]: the EC50 was found to be 4.39 nM. Turning to `CC1CCCCN1c1ccc(-c2nc(-c3cc(F)c4[nH]cnc4c3)no2)cc1C(F)(F)F` (centres unmarked) [Compound 7, 7-fluoro-5-{5-[4-(2-methylpiperidin-1-yl)-3-(trifluoromethyl)phenyl]-1,2,4-oxadiazol-3-yl}-1H-benzimidazole], the EC50 is 14 nM. `CC1CCCCN1c1ccc(-c2nc(-c3ccc4c(ccn4C)c3)no2)cc1[N+](=O)[O-]` (centres unmarked) [Compound 19, 1-methyl-5-{5-[4-(2-methylpiperidin-1-yl)-3-nitrophenyl]-1,2,4-oxadiazol-3-yl}-1H-indole]: the EC50 amounted to 1270 nM. Same read-out and setting: the result for `Cc1cc(-c2noc(-c3ccc(N4CCCCC4C)c(C(F)(F)F)c3)n2)cc2nc[nH]c12` (centres unmarked) [Compound 8, 7-methyl-5-{5-[4-(2-methylpiperidin-1-yl)-3-(trifluoromethyl)phenyl]-1,2,4-oxadiazol-3-yl}-1H-benzimidazole] reads 7 nM. The compound `C[C@H]1CCCCN1c1ccc(-c2nc(-c3ccc4[nH]cnc4c3)no2)cc1C(F)(F)F` [Compound 29, 5-{5-[4-[(2S)-2-methylpiperidin-1-yl]-3-(trifluoromethyl)phenyl]-1,2,4-oxadiazol-3-yl}-1H-benzimidazole] registered an EC50 of 3 nM. For `Cc1cc(-c2nc(-c3ccc4c(c3)CN(C(=O)OC(C)(C)C)CC4)no2)cnc1N1CCCC1C` (centres unmarked) [Compound 13, tert-butyl 7-{5-[5-methyl-6-(2-methylpyrrolidin-1-yl)pyridin-3-yl]-1,2,4-oxadiazol-3-yl}-3,4-dihydroisoquinoline-2(1H)-carboxylate], the EC50 was > 20000 nM. On the same count and under the same terms, in the case of `CC1CCCCN1c1ccc(-c2nc(-c3ccc4[nH]cnc4c3)no2)cc1C#N` (centres unmarked) [Compound 2, 5-[3-(1H-benzimidazol-5-yl)-1,2,4-oxadiazol-5-yl]-2-(2-methylpiperidin-1-yl)benzonitrile] it was 10 nM. Consider `Cc1cc(-c2nc(-c3ccc4c(c3)CNCC4)no2)cnc1N1CCCC1C` (centres unmarked) [Compound 14, 7-{5-[5-methyl-6-(2-methylpyrrolidin-1-yl)pyridin-3-yl]-1,2,4-oxadiazol-3-yl}-1,2,3,4-tetrahydroisoquinoline], for which the EC50 came out at 64 nM.
